{"source": "patent US20230374575A1", "about": "“METHOD FOR VIRUS DETECTION” (priority 2020, published 2023)", "key": {"[1]": {"tested_on": "Vaccinia Virus, Elstree strain, ATCC VR1549", "format": "cell-based"}, "[2]": {"tested_on": "Bovine coronavirus", "experiment": "Virucidal activity test according to DIN EN 14476:2019-10, Bovine coronavirus", "format": "cell-based, Bovine coronavirus (Betacoronavirus 1)", "settings": "for inactivation of Bovine coronavirus (in words): at the tested concentrations (Example 4); for Log10 reduction factor(s) incl. 95% confidence interval(s) against Bovine coronavirus: conc. 1% (DDAC 0.015%, Braunol povidone iodine 0.05%), initial results", "protocol": "Analysis was performed by Henkel (Dusseldorf) according to the European norm DIN EN 14476:2019-10.\nThe following test for virucidal activity of the different test substances were performed by Henkel (Dusseldorf) according to the European norm DIN EN 14476:2019-10. The experimental conditions were identical to those in Example 3 but with a Bovine coronavirus instead of Vaccinia virus."}, "[3]": {"tested_on": "reverse transcriptase (RT)", "experiment": "(RT-)qPCR with test substance added, RT reaction (IC RNA template)", "format": "biochemical", "settings": "for maximal non-inhibiting concentration, RT reaction: final concentration in (RT-)PCR, QuantiNova Pathogen Mix, 40 cycles, compared to water control (Examples 1, 2)"}, "[4]": {"biological_target": "T1, Taq polymerase (Thermus aquaticus, UniProt P19821)", "T1 construct": "purchased QIAGEN (QuantiNova Pathogen + IC Kit; QIAprep& Viral RNA UM Kit)", "T1 sequence (P19821 whole entry)": "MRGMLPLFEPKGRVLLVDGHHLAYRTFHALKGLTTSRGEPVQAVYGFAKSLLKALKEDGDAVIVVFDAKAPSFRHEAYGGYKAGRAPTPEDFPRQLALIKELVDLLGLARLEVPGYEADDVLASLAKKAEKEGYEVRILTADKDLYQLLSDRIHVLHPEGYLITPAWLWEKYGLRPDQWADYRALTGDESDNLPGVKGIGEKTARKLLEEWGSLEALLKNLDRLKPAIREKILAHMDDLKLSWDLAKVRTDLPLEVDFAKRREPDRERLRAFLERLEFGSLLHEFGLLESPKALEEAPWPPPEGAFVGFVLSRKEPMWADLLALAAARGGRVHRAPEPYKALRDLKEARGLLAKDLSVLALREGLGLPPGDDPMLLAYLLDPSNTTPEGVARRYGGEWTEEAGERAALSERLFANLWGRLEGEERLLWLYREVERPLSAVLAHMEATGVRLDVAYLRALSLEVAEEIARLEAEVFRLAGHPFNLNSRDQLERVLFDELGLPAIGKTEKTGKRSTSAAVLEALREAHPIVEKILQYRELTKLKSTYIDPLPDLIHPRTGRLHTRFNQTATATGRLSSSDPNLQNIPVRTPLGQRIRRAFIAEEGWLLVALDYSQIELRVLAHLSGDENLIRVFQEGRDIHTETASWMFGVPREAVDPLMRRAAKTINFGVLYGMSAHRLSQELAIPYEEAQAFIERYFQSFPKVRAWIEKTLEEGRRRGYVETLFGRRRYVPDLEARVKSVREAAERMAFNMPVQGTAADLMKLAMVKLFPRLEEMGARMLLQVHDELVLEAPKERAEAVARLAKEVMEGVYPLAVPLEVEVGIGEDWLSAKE", "experiment": "(RT-)qPCR with test substance added, DNA template", "format": "biochemical", "settings": "for maximal non-inhibiting concentration, Taq polymerase: final concentration in (RT-)PCR, QuantiNova Pathogen Mix, 40 cycles, compared to water control (Examples 1, 2)"}, "[5]": {"tested_on": "(RT-)PCR reaction", "experiment": "(RT-)PCR compatibility of test substance, reaction as a whole", "format": "biochemical"}, "[6]": {"tested_on": "N1 and N2 genes of SARS-CoV-2", "format": "biochemical"}, "[7]": {"tested_on": "DNA and/or RNA viruses", "experiment": "Virucidal suspension tests, summary statement", "format": "cell-based", "settings": "summary of the examples; against DNA and/or RNA viruses"}, "[8]": {"tested_on": "in vitro transcribed SARS-CoV-2 genes N1 and N2", "format": "biochemical"}, "[9]": {"settings": "Example 8, FIG. 8, substance alone, increasing concentrations, QIAprep&amp reaction mix without Extraction Buffer step"}, "[10]": {"settings": "Example 7, FIG. 7, without Tween20"}, "[11]": {"settings": "Example 6, FIG. 6A, Tween20 at very high concentrations, Tween60 and Brij58 at much lower concentrations"}}, "note": "Where “and” joins values, the source holds several entries; their conditions need not be identical. Identical values can stand only once."}
{"compound": "CCCCCCCCCC[N+](C)(C)CCCCCCCCCC.[Cl-]", "note": "[DDAC, Didecyldimethylammonium chloride]", "values": [{"measurement": "reduction of the virus titer", "setting": "[1]", "value": 4, "unit": "log10 grades"}, {"measurement": "virucidal activity against Vaccinia virus (in words)", "setting": "[1]", "value": "strong virucidal activity"}, {"measurement": "inactivation of Bovine coronavirus (in words)", "setting": "[2]", "value": "effectively inactivated"}, {"measurement": "Log10 reduction factor(s) incl. 95% confidence interval(s) against Bovine coronavirus", "setting": "[2]; contact time 15 min", "value": ">5.13 ± 0.25", "unit": "Log10"}, {"measurement": "Log10 reduction factor(s) incl. 95% confidence interval(s) against Bovine coronavirus", "setting": "[2]; contact time 60 min", "value": ">4.88 ± 0.25", "unit": "Log10"}, {"measurement": "maximal non-inhibiting concentration, RT reaction", "setting": "[3]", "value": "≤ 0.005", "unit": "%"}, {"measurement": "maximal non-inhibiting concentration, Taq polymerase", "setting": "[4]", "value": "≤ 0.005", "unit": "%"}, {"measurement": "inhibition of the (RT-)PCR (in words)", "setting": "[5]; [9]", "value": "significant inhibition"}, {"measurement": "inhibition of the (RT-)PCR by substance in transport/storage medium (in words)", "setting": "[6]", "value": "no inhibition"}, {"measurement": "reduction of the virus titer", "setting": "[7]", "value": "about 4 log10"}]}
{"compound": "CCCCCCCCCCCC[N+](C)(C)[O-]", "note": "[LDAO, Lauryldimethylamin-N-oxide (N,N-Dimethyldodecylamine N-oxide)]", "values": [{"measurement": "inhibition of the RT reaction (in words)", "setting": "[3]; LDAO at 0.035%, Ecosurf EH-9 at all tested concentrations (0.035-0.7%), compared to water control", "value": "slight but acceptable inhibition"}, {"measurement": "maximal non-inhibiting concentration, RT reaction", "setting": "[3]", "value": 0.035, "unit": "%"}, {"measurement": "maximal non-inhibiting concentration, Taq polymerase", "setting": "[4]", "value": 0.035, "unit": "%"}]}
{"compound": "CCCCCCCCCCCCOS(=O)(=O)[O-].[Na+]", "note": "[SDS, Sodium dodecyl sulfate]", "values": [{"measurement": "concentration from which Ct-values increase, reverse transcriptase", "setting": "[3]; [10]", "value": "≥ 0.03125", "unit": "%"}, {"measurement": "concentration from which Ct-values increase, Taq polymerase", "setting": "[4]; [10]", "value": "≥ 0.125", "unit": "%"}, {"measurement": "inhibition of the (RT-)PCR (in words)", "setting": "[5]; [9]", "value": "significant inhibition"}]}
{"compound": "O=C(O)CCP(CCC(=O)O)CCC(=O)O", "note": "[TCEP, Tris-(2-carboxyethyl)-phosphin]", "values": [{"measurement": "concentration at which Ct-values increase again", "setting": "[8]", "value": "≥ 2", "unit": "mM"}, {"measurement": "concentration that neutralizes the inhibitory effect of 0.5% povidone iodine in RT-PCR", "setting": "[8]", "value": 5, "unit": "mM"}, {"measurement": "decrease of the Ct-value", "setting": "[8]", "value": "about 2"}]}
{"compound": "CCCCCCCCCCCC(=O)OCCOCCOCCOCCOCCOCCOCCOCCOCCOCCOCCOCCOCCOCCOCCOCCOCCOCCOCCOCCOCC(OCCOCCOCCOCCOCCOCCOCCOCCOCCOCCOCCOCCOCCOCCOCCOCCOCCOCCOCCOCCO)C1OCC(OCCOCCOCCOCCOCCOCCOCCOCCOCCOCCOCCOCCOCCOCCOCCOCCOCCOCCOCCOCCO)C1OCCOCCOCCOCCOCCOCCOCCOCCOCCOCCOCCOCCOCCOCCOCCOCCOCCOCCOCCOCCO", "note": "(centres unmarked) [Tween20, polyoxyethylene (20) sorbitan monolaurate]", "values": [{"measurement": "log10 reduction factor(s) incl. 95% confidence interval(s) against Vaccinia Virus, Elstree strain, ATCC VR1549, with clean conditions", "setting": "[1]", "value": "2.00 ± 0.54 log10 and 1.88 ± 0.41 log10"}, {"measurement": "virucidal activity against Vaccinia virus (in words)", "setting": "[1]", "value": "least reduction of the virus titer"}, {"measurement": "counteracting effect on SDS inhibition of the reverse transcription (in words)", "setting": "[3]; 3% and 5% Tween20 in the PCR, depending on the Tween20 concentration", "value": "significantly reduced"}, {"measurement": "maximal non-inhibiting concentration, RT reaction", "setting": "[3]", "value": "≤ 0.35", "unit": "%"}, {"measurement": "counteracting effect on SDS inhibition of the Taq polymerase (in words)", "setting": "[4]; 3% and 5% Tween20 in the PCR, even at the highest concentrations of SDS tested", "value": "reactivates the activity"}, {"measurement": "maximal non-inhibiting concentration, Taq polymerase", "setting": "[4]", "value": "≤ 0.35", "unit": "%"}, {"measurement": "enzyme inhibition in (RT-)PCR (in words)", "setting": "[5]; 0.7% final concentration in (RT-)PCR", "value": "some inhibition"}, {"measurement": "inhibition of the (RT-)PCR (in words)", "setting": "[5]; [11]", "value": "only a moderate inhibition"}]}
{"compound": "polyoxyethylene (20) sorbitan monostearate [Tween60]", "values": [{"measurement": "inhibition of the (RT-)PCR (in words)", "setting": "[5]; [11]", "value": "no PCR inhibition at all"}]}
{"compound": "polyoxyethylene(20) cetyl ether [Brij58]", "values": [{"measurement": "inhibition of the (RT-)PCR (in words)", "setting": "[5]; [11]", "value": "no PCR inhibition at all"}]}
{"compound": "povidone iodine", "values": [{"measurement": "reduction of the virus titer", "setting": "[1]", "value": 4, "unit": "log10 grades"}, {"measurement": "virucidal activity against Vaccinia virus (in words)", "setting": "[1]", "value": "strong virucidal activity"}, {"measurement": "inactivation of Bovine coronavirus (in words)", "setting": "[2]", "value": "effectively inactivated"}, {"measurement": "Log10 reduction factor(s) incl. 95% confidence interval(s) against Bovine coronavirus", "setting": "[2]; contact time 15 min", "value": ">6.13 ± 0.25", "unit": "Log10"}, {"measurement": "Log10 reduction factor(s) incl. 95% confidence interval(s) against Bovine coronavirus", "setting": "[2]; contact time 60 min", "value": ">5.88 ± 0.25", "unit": "Log10"}, {"measurement": "maximal non-inhibiting concentration, RT reaction", "setting": "[3]", "value": "≤ 0.0175", "unit": "%"}, {"measurement": "maximal non-inhibiting concentration, Taq polymerase", "setting": "[4]", "value": "≤ 0.0175", "unit": "%"}, {"measurement": "inhibition of the (RT-)PCR (in words)", "setting": "[8]", "value": "significant inhibition"}, {"measurement": "reduction of the virus titer", "setting": "[7]", "value": "about 4 log10"}]}
